Data reported in PubChem BioAssay AID2060888 (Molecular Pharmacology Branch, DTP, NCI, 2025).

System: 695427-040-R-J1-PDC complex spheroid viability
Test: Anticancer human tumor 695427-040-R-J1-PDC patient-derived colon adenocarcinoma cell line growth inhibition [RAS]
Settings: for viability, T/C: stronger effect = lower value
Method in brief: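 Tumour cells grown as complex spheroids with HUVEC endothelial cells and mesenchymal stem cells, treated with RAS pathway inhibitor combinations. Each agent spans half-log steps from near clinical Cmax, or 10 microM where Cmax is unknown.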

[1] = curve of first compound, second compound 0.000949 µM
[2] = curve of first compound, second compound 0.003 µM
[3] = curve of first compound, second compound 0.00949 µM
[4] = curve of first compound, second compound 0.03 µM
[5] = curve of first compound, second compound 0.0949 µM
[6] = curve of first compound, second compound 0.3 µM
[7] = second compound 0.000949 µM, first compound 0.0316 µM
[8] = second compound 0.000949 µM, first compound 0.1 µM
[9] = second compound 0.000949 µM, first compound 0.316 µM
[10] = second compound 0.000949 µM, first compound 1 µM
[11] = second compound 0.003 µM, first compound 0.0316 µM
[12] = second compound 0.003 µM, first compound 0.1 µM
[13] = second compound 0.003 µM, first compound 0.316 µM
[14] = second compound 0.003 µM, first compound 1 µM
[15] = second compound 0.00949 µM, first compound 0.0316 µM
[16] = second compound 0.00949 µM, first compound 0.1 µM
[17] = second compound 0.00949 µM, first compound 0.316 µM
[18] = second compound 0.00949 µM, first compound 1 µM
[19] = second compound 0.03 µM, first compound 0.0316 µM
[20] = second compound 0.03 µM, first compound 0.1 µM
[21] = second compound 0.03 µM, first compound 0.316 µM
[22] = second compound 0.03 µM, first compound 1 µM
[23] = second compound 0.0949 µM, first compound 0.0316 µM
[24] = second compound 0.0949 µM, first compound 0.1 µM
[25] = second compound 0.0949 µM, first compound 0.316 µM
[26] = second compound 0.0949 µM, first compound 1 µM
[27] = second compound 0.3 µM, first compound 0.0316 µM
[28] = second compound 0.3 µM, first compound 0.1 µM
[29] = second compound 0.3 µM, first compound 0.316 µM
[30] = second compound 0.3 µM, first compound 1 µM
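Further: viability read after seven days of drug exposure.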
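Wherever viability, T/C is given: 100% = DMSO vehicle control viability.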

`CCC(CC)c1cc(NC2CCC(N)C2)n2nccc2n1` (centres undefined) + CCn1c(-c2cccnc2C(C)OC)c2c3cc(ccc31)N1CCOC(CC(NC(=O)C(C(C)C)N(C)C(=O)C3(F)CCN(C(=O)C#CC(C)(C)N(C)C)CC3)C(=O)N3CCCC(N3)C(=O)OCC(C)(C)C2)C1 was tested, and the IC50 [1] was 1.88 µM, the IC50 [2] was 1.81 µM and the IC50 [3] was 1.8 µM. For the same molecule, the IC50 [4] was 1.9 µM, the IC50 [5] was 1.66 µM and the IC50 [6] was 1.46 µM. The viability, T/C [7] was 82.4%, the viability, T/C [8] was 104% and the viability, T/C [9] was 100%. For the same molecule, the viability, T/C [10] was 94.6%, the viability, T/C (second compound 0.000949 µM, first compound 3.16 µM) was 13.2% and the viability, T/C (second compound 0.000949 µM, first compound 10 µM) was 12.6%. For the same molecule, the viability, T/C [11] was 106%, the viability, T/C [12] was 88.4% and the viability, T/C [13] was 100%. For the same molecule, the viability, T/C [14] was 81.5%, the viability, T/C (second compound 0.003 µM, first compound 3.16 µM) was 20.3% and the viability, T/C (second compound 0.003 µM, first compound 10 µM) was 9.28%. It also gave a viability, T/C [15] of 82.2%, a viability, T/C [16] of 82.4% and a viability, T/C [17] of 111%. The viability, T/C [18] was 87.9%, the viability, T/C (second compound 0.00949 µM, first compound 3.16 µM) was 13.3% and the viability, T/C (second compound 0.00949 µM, first compound 10 µM) was 10.4%. For the same molecule, the viability, T/C [19] was 86.7%, the viability, T/C [20] was 90.8% and the viability, T/C [21] was 97.6%. The viability, T/C [22] was 90.5%, the viability, T/C (second compound 0.03 µM, first compound 3.16 µM) was 17.7% and the viability, T/C (second compound 0.03 µM, first compound 10 µM) was 12.2%. It also gave a viability, T/C [23] of 89.2%, a viability, T/C [24] of 83.1% and a viability, T/C [25] of 86.8%. It also gave a viability, T/C [26] of 78.8%, a viability, T/C (second compound 0.0949 µM, first compound 3.16 µM) of 13.3% and a viability, T/C (second compound 0.0949 µM, first compound 10 µM) of 11.5%. For the same molecule, the viability, T/C [27] was 85.3%, the viability, T/C [28] was 77% and the viability, T/C [29] was 85.2%. It also gave a viability, T/C [30] of 68.3%, a viability, T/C (second compound 0.3 µM, first compound 3.16 µM) of 12.6% and a viability, T/C (second compound 0.3 µM, first compound 10 µM) of 11%.

In the case of `C=CC(=O)N1CCN(c2nc(OCC3CCCN3C)nc3c(F)c(-c4nc(N)cc(C)c4C(F)(F)F)c(Cl)cc23)C(C)C1` (centres undefined) + CCn1c(-c2cc(N3CCN(C)CC3)cnc2C(C)OC)c2c3cc(ccc31)-c1csc(n1)CC(NC(=O)C1CC1C)C(=O)N1CCCC(N1)C(=O)OCC(C)(C)C2, the IC50 [1] is reported as > 1 µM, the IC50 [2] is reported as > 1 µM and the IC50 [3] is reported as > 1 µM. For the same molecule, the IC50 [4] was > 1 µM, the IC50 [5] was < 0.00316 µM and the IC50 [6] was < 0.00316 µM. For the same molecule, the viability, T/C (second compound 0.000949 µM, first compound 0.00316 µM) was 91.6%, the viability, T/C (second compound 0.000949 µM, first compound 0.01 µM) was 115% and the viability, T/C [7] was 99.4%. For the same molecule, the viability, T/C [8] was 94.1%, the viability, T/C [9] was 110% and the viability, T/C [10] was 90%. The viability, T/C (second compound 0.003 µM, first compound 0.00316 µM) was 92.3%, the viability, T/C (second compound 0.003 µM, first compound 0.01 µM) was 99.9% and the viability, T/C [11] was 85.7%. The viability, T/C [12] was 85%, the viability, T/C [13] was 98.9% and the viability, T/C [14] was 85.5%. It also gave a viability, T/C (second compound 0.00949 µM, first compound 0.00316 µM) of 94%, a viability, T/C (second compound 0.00949 µM, first compound 0.01 µM) of 69.2% and a viability, T/C [15] of 81.2%. For the same molecule, the viability, T/C [16] was 75.3%, the viability, T/C [17] was 76.4% and the viability, T/C [18] was 69.1%. It also gave a viability, T/C (second compound 0.03 µM, first compound 0.00316 µM) of 69.5%, a viability, T/C (second compound 0.03 µM, first compound 0.01 µM) of 63.7% and a viability, T/C [19] of 57%. For the same molecule, the viability, T/C [20] was 55.5%, the viability, T/C [21] was 56.3% and the viability, T/C [22] was 59%. The viability, T/C (second compound 0.0949 µM, first compound 0.00316 µM) was 52.3%, the viability, T/C (second compound 0.0949 µM, first compound 0.01 µM) was 47.7% and the viability, T/C [23] was 42.3%. It also gave a viability, T/C [24] of 42.8%, a viability, T/C [25] of 47.1% and a viability, T/C [26] of 45.1%. It also gave a viability, T/C (second compound 0.3 µM, first compound 0.00316 µM) of 39.2%, a viability, T/C (second compound 0.3 µM, first compound 0.01 µM) of 34.7% and a viability, T/C [27] of 42.7%. The viability, T/C [28] was 38%, the viability, T/C [29] was 36.8% and the viability, T/C [30] was 37.1%.

For `Nc1ccn(C2OC(CO)C(O)C2(F)F)c(=O)n1` (centres undefined), the viability, T/C (compound 0.00316 µM) was 92.8% [middle of 4 runs], the viability, T/C (compound 0.0316 µM) was 78.1% [middle of 4 runs] and the viability, T/C (compound 0.1 µM) was 78.2% [middle of 4 runs]. The viability, T/C (compound 0.316 µM) was 72% [middle of 4 runs], the viability, T/C (compound 1 µM) was 65% [middle of 4 runs] and the IC50 (curve of compound) was > 1 µM.

With `C#Cc1c(F)ccc2cc(O)cc(-c3ncc4c(N5CC6CCC(C5)N6)nc(OCC56CCCN5CC(F)C6)nc4c3F)c12` (centres undefined) the viability, T/C (compound 0.0316 µM) was 99.3% [middle of 8 runs], the viability, T/C (compound 0.1 µM) was 95.3% [middle of 8 runs] and the viability, T/C (compound 0.316 µM) was 89.5% [middle of 8 runs]. The viability, T/C (compound 1 µM) was 73.6% [middle of 8 runs], the viability, T/C (compound 3.16 µM) was 62.1% [middle of 8 runs] and the viability, T/C (compound 10 µM) was 42.7% [middle of 8 runs]. For the same molecule, the IC50 (compound alone, run of 06/10/2024) was 6.3 µM [middle of 8 runs].

Molecule `CCc1c2c(nc3ccc(O)cc13)-c1cc3c(c(=O)n1C2)COC(=O)[C@]3(O)CC` + C#Cc1c(F)ccc2cc(O)cc(-c3ncc4c(N5CC6CCC(C5)N6)nc(OCC56CCCN5CC(F)C6)nc4c3F)c12 has an IC50 (curve of first compound, second compound 0.0316 µM) of 0.119 µM, an IC50 (curve of first compound, second compound 0.1 µM) of 0.122 µM and an IC50 (curve of first compound, second compound 0.316 µM) of 0.0933 µM. For the same molecule, the IC50 (curve of first compound, second compound 1 µM) was 0.0597 µM, the IC50 (curve of first compound, second compound 3.16 µM) was 0.0107 µM and the IC50 (curve of first compound, second compound 10 µM) was < 0.000949 µM. It also gave a viability, T/C (second compound 0.0316 µM, first compound 0.000949 µM) of 89.1%, a viability, T/C (second compound 0.0316 µM, first compound 0.003 µM) of 89.8% and a viability, T/C (second compound 0.0316 µM, first compound 0.00949 µM) of 77.9%. The viability, T/C (second compound 0.0316 µM, first compound 0.03 µM) was 76%, the viability, T/C (second compound 0.0316 µM, first compound 0.0949 µM) was 53.5% and the viability, T/C (second compound 0.0316 µM, first compound 0.3 µM) was 30.4%. For the same molecule, the viability, T/C (second compound 0.1 µM, first compound 0.000949 µM) was 96.1%, the viability, T/C (second compound 0.1 µM, first compound 0.003 µM) was 86.2% and the viability, T/C (second compound 0.1 µM, first compound 0.00949 µM) was 78.8%. For the same molecule, the viability, T/C (second compound 0.1 µM, first compound 0.03 µM) was 72.2%, the viability, T/C (second compound 0.1 µM, first compound 0.0949 µM) was 58.7% and the viability, T/C (second compound 0.1 µM, first compound 0.3 µM) was 28.6%. It also gave a viability, T/C (second compound 0.316 µM, first compound 0.000949 µM) of 82%, a viability, T/C (second compound 0.316 µM, first compound 0.003 µM) of 79.9% and a viability, T/C (second compound 0.316 µM, first compound 0.00949 µM) of 70.7%. It also gave a viability, T/C (second compound 0.316 µM, first compound 0.03 µM) of 67.1%, a viability, T/C (second compound 0.316 µM, first compound 0.0949 µM) of 49.4% and a viability, T/C (second compound 0.316 µM, first compound 0.3 µM) of 25.7%. It also gave a viability, T/C (second compound 1 µM, first compound 0.000949 µM) of 73.8%, a viability, T/C (second compound 1 µM, first compound 0.003 µM) of 66.1% and a viability, T/C (second compound 1 µM, first compound 0.00949 µM) of 60.1%. The viability, T/C (second compound 1 µM, first compound 0.03 µM) was 59.8%, the viability, T/C (second compound 1 µM, first compound 0.0949 µM) was 45.8% and the viability, T/C (second compound 1 µM, first compound 0.3 µM) was 27.2%. The viability, T/C (second compound 3.16 µM, first compound 0.000949 µM) was 54.3%, the viability, T/C (second compound 3.16 µM, first compound 0.003 µM) was 52% and the viability, T/C (second compound 3.16 µM, first compound 0.00949 µM) was 48.7%. The viability, T/C (second compound 3.16 µM, first compound 0.03 µM) was 46%, the viability, T/C (second compound 3.16 µM, first compound 0.0949 µM) was 40.1% and the viability, T/C (second compound 3.16 µM, first compound 0.3 µM) was 24.9%. The viability, T/C (second compound 10 µM, first compound 0.000949 µM) was 37.4%, the viability, T/C (second compound 10 µM, first compound 0.003 µM) was 36.5% and the viability, T/C (second compound 10 µM, first compound 0.00949 µM) was 36.8%. The viability, T/C (second compound 10 µM, first compound 0.03 µM) was 28.1%, the viability, T/C (second compound 10 µM, first compound 0.0949 µM) was 26.2% and the viability, T/C (second compound 10 µM, first compound 0.3 µM) was 17.2%.
